Source: ChEMBL document CHEMBL1157738, “Simocyclinone D8 turns on against Gram-negative bacteria in a clinical setting” (2010)
In brackets after ≈: the same amount, converted by molar mass.

Key:
[1] = test system: Klebsiella pneumoniae; test: Antimicrobial activity against Klebsiella pneumoniae isolate 92 assessed as drug uptake; format: functional, organism-based
[2] = test system: Escherichia coli; test: Antibacterial activity against Escherichia coli isolate 47 expressing qnr B19 gene after 24 hrs by twofold serial dilution method; format: functional
[3] = test system: Escherichia coli; test: Antibacterial activity against Escherichia coli isolate 115 expressing GyrA S83L mutant assessed as residual bacterial survival at 50 mg/L after 24 hrs by twofold serial dilution method; format: functional; conditions: isolate 115, 24 h
[4] = test system: Klebsiella pneumoniae; test: Antibacterial activity against Klebsiella pneumoniae isolate 370 expressing qnr B19 gene, GyrA D87G mutant assessed as residual bacterial survival at 50 mg/L after 24 hrs by twofold serial dilution method; format: functional; conditions: isolate 370, 24 h
[5] = test system: Escherichia coli; test: Antibacterial activity against Escherichia coli isolate 21 assessed as residual bacterial survival at 50 mg/L after 24 hrs by twofold serial dilution method; format: functional; conditions: isolate 21, 24 h
[6] = test system: Klebsiella pneumoniae; test: Antibacterial activity against Klebsiella pneumoniae isolate 97 assessed as drug uptake relative to total amount drug treated; format: functional, organism-based
[7] = test system: Staphylococcus aureus; test: Antibacterial activity against Staphylococcus aureus assessed as residual bacterial survival at 50 mg/L after 24 hrs by twofold serial dilution method; format: functional
[8] = test system: Escherichia coli; test: Antibacterial activity against Escherichia coli XL-1Blue assessed as residual bacterial survival at 50 mg/L after 24 hrs by twofold serial dilution method; format: functional
[9] = test system: Escherichia coli; test: Antibacterial activity against Escherichia coli isolate 41 assessed as residual bacterial survival at 50 mg/L after 24 hrs by twofold serial dilution method; format: functional; conditions: isolate 41, 24 h
[10] = test system: Staphylococcus aureus; test: Antibacterial activity against Staphylococcus aureus after 24 hrs by twofold serial dilution method; format: functional
[11] = test system: Escherichia coli; test: Antibacterial activity against Escherichia coli isolate 50 expressing qnr B19 gene assessed as residual bacterial survival at 50 mg/L after 24 hrs by twofold serial dilution method; format: functional; conditions: isolate 50, 24 h
[12] = test system: Escherichia coli; test: Antibacterial activity against Escherichia coli JM109 after 24 hrs by twofold serial dilution method; format: functional
[13] = test system: Escherichia coli; test: Antibacterial activity against Escherichia coli isolate 21 after 24 hrs by twofold serial dilution method; format: functional
[14] = test system: Escherichia coli; test: Antibacterial activity against Escherichia coli isolate 191 expressing qnr S1 gene after 24 hrs by twofold serial dilution method; format: functional
[15] = test system: Klebsiella pneumoniae; test: Antibacterial activity against Klebsiella pneumoniae isolate 204 expressing qnr B19 gene after 24 hrs by twofold serial dilution method; format: functional
[16] = test system: Escherichia coli; test: Antibacterial activity against Escherichia coli XL-1Blue after 24 hrs by twofold serial dilution method; format: functional
[17] = test system: Klebsiella pneumoniae; test: Antibacterial activity against Klebsiella pneumoniae isolate 16 expressing qnr B19 gene, GyrA D87G mutant assessed as residual bacterial survival at 50 mg/L after 24 hrs by twofold serial dilution method; format: functional; conditions: isolate 16, 24 h
[18] = test system: Escherichia coli; test: Antibacterial activity against Escherichia coli isolate 50 assessed as drug uptake; format: functional, organism-based
[19] = test system: Klebsiella pneumoniae; test: Antibacterial activity against Klebsiella pneumoniae isolate 328 expressing qnr B19 gene, GyrA D87G mutant assessed as residual bacterial survival at 50 mg/L after 24 hrs by twofold serial dilution method; format: functional; conditions: isolate 328, 24 h
[20] = test system: Klebsiella pneumoniae; test: Antibacterial activity against Klebsiella pneumoniae isolate 204 expressing qnr B19 gene assessed as residual bacterial survival at 50 mg/L after 24 hrs by twofold serial dilution method; format: functional; conditions: isolate 204, 24 h
[21] = test system: Klebsiella pneumoniae; test: Antibacterial activity against Klebsiella pneumoniae isolate 92 assessed as drug uptake relative to total amount drug treated; format: functional, organism-based
[22] = test system: Klebsiella pneumoniae; test: Antibacterial activity against Klebsiella pneumoniae isolate 172 expressing qnr B19 gene, GyrA D87G mutant assessed as residual bacterial survival at 50 mg/L after 24 hrs by twofold serial dilution method; format: functional; conditions: isolate 172, 24 h
[23] = test system: Escherichia coli; test: Antibacterial activity against Escherichia coli HB101 assessed as residual bacterial survival at 50 mg/L after 24 hrs by twofold serial dilution method; format: functional; conditions: HB101, 24 h
[24] = test system: Escherichia coli; test: Antibacterial activity against Escherichia coli isolate 13 after 24 hrs by twofold serial dilution method; format: functional
[25] = test system: Escherichia coli; test: Antibacterial activity against Escherichia coli isolate 24 assessed as drug uptake; format: functional, organism-based
[26] = test system: Escherichia coli; test: Antibacterial activity against Escherichia coli isolate 9 expressing qnr B19 gene, GyrA D87G mutant assessed as residual bacterial survival at 50 mg/L after 24 hrs by twofold serial dilution method; format: functional; conditions: isolate 9, 24 h
[27] = test system: Klebsiella pneumoniae; test: Antibacterial activity against Klebsiella pneumoniae isolate 97 expressing qnr B19 gene assessed as residual bacterial survival at 50 mg/L after 24 hrs by twofold serial dilution method; format: functional; conditions: isolate 97, 24 h
[28] = test system: Escherichia coli; test: Antibacterial activity against Escherichia coli isolate 32 assessed as residual bacterial survival at 50 mg/L after 24 hrs by twofold serial dilution method; format: functional; conditions: isolate 32, 24 h
[29] = test system: Escherichia coli; test: Antibacterial activity against Escherichia coli isolate 85 expressing GyrA S83L mutant assessed as residual bacterial survival at 50 mg/L after 24 hrs by twofold serial dilution method; format: functional; conditions: isolate 85, 24 h
[30] = test system: Escherichia coli; test: Antibacterial activity against Escherichia coli isolate 24 after 24 hrs by twofold serial dilution method; format: functional
[31] = test system: Klebsiella pneumoniae; test: Antimicrobial activity against Klebsiella pneumoniae isolate 97 assessed drug uptake; format: functional, organism-based

CC(=O)O[C@@H]1[C@@H](C)O[C@@H](c2ccc3c(c2O)[C@@H](O)[C@]24O[C@@]2(C3=O)[C@@]2(O)C(=O)C=C(C)C[C@@]2(O)C[C@@H]4O)C[C@H]1OC(=O)/C=C/C=C/C=C/C=C/C(=O)Nc1c(O)c2ccc(O)c(Cl)c2oc1=O [SIMOCYCLINONE D8]
Drug uptake [1]: 60 pmol | MIC50 [2]: 12 µg/mL (≈ 12.9 µM) | survival at 50 µg/mL [3]: > 90% | survival at 50 µg/mL [4]: > 90% | survival at 50 µg/mL [5]: > 90% | Drug uptake [6]: 1.3% | survival at 50 µg/mL [7]: 66% | survival at 50 µg/mL [8]: > 90% | survival at 50 µg/mL [9]: 9% | MIC50 [10]: 50 µg/mL (≈ 53.6 µM) | survival at 50 µg/mL [11]: 41% | MIC50 [12]: > 100 µg/mL | MIC50 [13]: > 100 µg/mL | MIC50 [14]: 25 µg/mL (≈ 26.8 µM) | MIC50 [15]: >100% | MIC50 [16]: > 100 µg/mL | survival at 50 µg/mL [17]: > 90% | Drug uptake [18]: 180 pmol | survival at 50 µg/mL [19]: > 90% | survival at 50 µg/mL [20]: > 90% | Drug uptake [21]: 1.96% | survival at 50 µg/mL [22]: > 90% | survival at 50 µg/mL [23]: > 90% | MIC50 [24]: > 100 µg/mL | Drug uptake [25]: 260 pmol | survival at 50 µg/mL [26]: > 90% | survival at 50 µg/mL [27]: 68% | survival at 50 µg/mL [28]: > 90% | survival at 50 µg/mL [29]: > 90% | MIC50 [30]: 3.12 µg/mL (≈ 3.35 µM) | Drug uptake [31]: 40 pmol
